Data set [1] concerns the target A2A receptor (Homo sapiens, UniProt P29274). The data set can be described thus: Inhibition of cAMP production in HEK cells. In kind it is cell-based. To be noted: HEK-293 cells with A2A receptor. For orientation: Changes in cAMP serve as a functional read-out for many G protein-coupled receptors.
Data set [2] in a line: in vitro. To be noted: human, Caco-2, pH 7.4.
The mark [3] stands for this setting: IC50 (nM) (3 nM NECA as agonist, 0.1% BSA), 3 nM NECA as agonist, 0.1% BSA.
Where [4] appears, read: IC50 (nM) (5 nM NECA as agonist, 2% HSA), 5 nM NECA as agonist, 2% HSA.
Where [5] appears, read: IC50 (nM) (5 μM Adenosine as agonist, 2.0% HSA), 5 μM Adenosine as agonist, 2.0% HSA.

A2A receptor, sequence (P29274 whole entry): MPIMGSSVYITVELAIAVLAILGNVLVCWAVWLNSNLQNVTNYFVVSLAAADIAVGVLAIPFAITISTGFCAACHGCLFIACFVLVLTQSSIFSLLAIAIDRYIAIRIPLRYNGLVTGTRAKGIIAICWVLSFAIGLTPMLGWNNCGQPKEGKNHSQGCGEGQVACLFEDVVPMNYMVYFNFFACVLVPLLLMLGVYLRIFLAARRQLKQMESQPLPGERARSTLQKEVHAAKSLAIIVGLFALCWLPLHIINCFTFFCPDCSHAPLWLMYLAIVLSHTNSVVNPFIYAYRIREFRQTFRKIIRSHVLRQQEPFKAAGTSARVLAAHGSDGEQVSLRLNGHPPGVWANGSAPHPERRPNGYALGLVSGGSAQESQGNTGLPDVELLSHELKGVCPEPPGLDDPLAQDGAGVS

Usually IC50 stands for the concentration needed to halve the response being measured. The efflux ratio is a quotient of directional permeabilities that is used to spot active efflux. Consider `CNCCNC(=O)COc1cc(N2CCN(CCn3c(=O)sc4c3nc(N)n3nc(-c5ccco5)nc43)CC2)c(F)cc1F` [Compound 62, 2-(5-(4-(2-(5-amino-8-(furan-2-yl)-2-oxothiazolo[5,4-e][1,2,4]triazolo[1,5-c]pyrimidin-3(2H)-yl)ethyl)piperazin-1-yl)-2,4-difluorophenoxy)-N-(2-(methylamino)ethyl)acetamide], for which the results for the IC50 in data set [1] (setting [3]), in data set [1] (setting [4]) and in data set [1] (setting [5]) were 0.5 nM, 1 nM and 21 nM, respectively. In data set [2], the efflux ratio at 120 min, 2 μM was determined as 23.

In the case of `CN(C)CCNC(=O)COc1cc(N2CCN(CCn3c(=O)sc4c3nc(N)n3nc(-c5ccco5)nc43)CC2)c(F)cc1F` [Compound 63, 2-(5-(4-(2-(5-amino-8-(furan-2-yl)-2-oxothiazolo[5,4-e][1,2,4]triazolo[1,5-c]pyrimidin-3(2H)-yl)ethyl)piperazin-1-yl)-2,4-difluorophenoxy)-N-(2-(dimethylamino)ethyl)acetamide], the half-maximal inhibitory concentration (IC50) was 0.3 nM in data set [1] (setting [3]), 1 nM in data set [1] (setting [4]) and 12 nM in data set [1] (setting [5]). In addition, the efflux ratio at 120 min, 2 μM in data set [2] amounted to 264.

Turning to `CN(C)CCN(C)C(=O)c1cc(N2CCN(CCn3c(=O)sc4c3nc(N)n3nc(-c5ccco5)nc43)CC2)c(F)cc1F` [Compound 64, 5-(4-(2-(5-amino-8-(furan-2-yl)-2-oxothiazolo[5,4-e][1,2,4]triazolo[1,5-c]pyrimidin-3(2H)-yl)ethyl)piperazin-1-yl)-N-(2-(dimethylamino)ethyl)-2,4-difluoro-N-methylbenzamide], the figures for the IC50 in data set [1] (setting [3]), in data set [1] (setting [4]) and in data set [1] (setting [5]) were 0.6 nM, 1 nM and 36 nM, respectively. In addition, the efflux ratio at 120 min, 2 μM in data set [2] came out at 60.

Take `Nc1nc2c(sc(=O)n2CCN2CCN(c3cc(OCc4nnn[nH]4)c(F)cc3F)CC2)c2nc(-c3ccco3)nn12` [Compound 66, 3-(2-(4-(5-((1H-tetrazol-5-yl)methoxy)-2,4-difluorophenyl)piperazin-1-yl)ethyl)-5-amino-8-(furan-2-yl)thiazolo[5,4-e][1,2,4]triazolo[1,5-c]pyrimidin-2(3H)-one]: the figures for the IC50 in data set [1] (setting [3]), in data set [1] (setting [4]) and in data set [1] (setting [5]) were 0.8 nM, 13 nM and 543 nM, respectively. Besides, the efflux ratio at 120 min, 2 μM in data set [2] was 1010.

For the compound `Cn1cnc(COc2ccc(N3CCN(CCn4c(=O)sc5c4nc(N)n4nc(-c6ccco6)nc54)CC3)c(F)c2)n1` [Compound 67, 5-amino-3-(2-(4-(2-fluoro-4-((1-methyl-1H-1,2,4-triazol-3-yl)methoxy)phenyl)piperazin-1-yl)ethyl)-8-(furan-2-yl)thiazolo[5,4-e][1,2,4]triazolo[1,5-c]pyrimidin-2(3H)-one], the values for the IC50 in data set [1] (setting [3]), in data set [1] (setting [4]) and in data set [1] (setting [5]) were 0.6 nM, 9 nM and 378 nM, respectively. The efflux ratio at 120 min, 2 μM in data set [2] is 15.

Take `Cn1cnc(COc2cc(N3CCN(CCn4c(=O)sc5c4nc(N)n4nc(-c6ccco6)nc54)CC3)c(F)cc2F)n1` [Compound 68, 5-amino-3-(2-(4-(2,4-difluoro-5-((1-methyl-1H-1,2,4-triazol-3-yl)methoxy)phenyl)piperazin-1-yl)ethyl)-8-(furan-2-yl)thiazolo[5,4-e][1,2,4]triazolo[1,5-c]pyrimidin-2(3H)-one]: the 50% inhibitory concentration (IC50) in data set [1] (setting [3]) amounted to 14 nM; in data set [1] (setting [4]), 123 nM; in data set [1] (setting [5]) it was 2700 nM. In data set [2], the efflux ratio at 120 min, 2 μM is 108.

On to `CN(CCNC(=O)c1ccc(N2CCN(CCn3c(=O)sc4c3nc(N)n3nc(-c5ccco5)nc43)CC2)c(F)c1)C1COC1` [Compound 69, 4-(4-(2-(5-amino-8-(furan-2-yl)-2-oxothiazolo[5,4-e][1,2,4]triazolo[1,5-c]pyrimidin-3(2H)-yl)ethyl)piperazin-1-yl)-3-fluoro-N-(2-(methyl(oxetan-3-yl)amino)ethyl)benzamide], for which the IC50 in data set [1] (setting [3]) is 0.5 nM; in data set [1] (setting [4]), 5 nM; in data set [1] (setting [5]), 211 nM. The efflux ratio at 120 min, 2 μM in data set [2] is 201.

For the origin of these results see patent publication US10995101B2, “2-oxo-thiazole derivatives as A2A inhibitors and compounds for use in the treatment of cancers” (iTeos Therapeutics SA, priority 2017, dated 2021).
